US20080045537A1, “Chemical Compounds” (priority 2004, published 2008)
Where two headings read alike, the source gives them in different places.

Tests used:
T-tropic HIV = settings: patients that are dual tropic or have only the T-tropic form of the virus; cited from earlier work
[1] = test system: HIV-1 gp160 (from the HXB2 HIV strain); assay: Cell/cell fusion assay (HEK-293 expressing HIV-1 tat, rev, gp160 with HOS hCXCR4/hCCR5/hCD4/pHIV-LTR-luciferase cells); assay type: cell-based; settings: Human immunodeficiency virus 1, HXB2, HEK293, 24 h, read-out: Fusion assay (pIC50), luciferase readout after 24 h (converted)
From the text: The complete coding sequences of HIV-1 tat (GenBank Accession No. X07861) and rev (GenBank Accession No. M34378) were cloned into pcDNA3.1 expression vectors containing G418 and hygromycin resistance genes, respectively. The complete coding sequence of the HIV-1 (HXB2 strain) gp160 envelope gene (nucleotide bases 6225-8795 of GenBank Accession No. K03455) was cloned into plasmid pCRII-TOPO. The three HIV genes were additionally inserted into the baculovirus shuttle vector, pFastBacMam1, under the transcriptional control of the CMV promoter. A construction of the pHIV-I LTR containing mutated NFkB sequences linked to the luciferase reporter gene was prepared by digesting pcDNA3.1, containing the G418 resistance gene, with Nru I and Bam HI to remove the CMV promoter. LTR-luc was then cloned into the Nru I/Bam HI sites of the plasmid vector. Plasmid preparations were performed after the plasmids were amplified in Escherichia coli strain DH5-alpha. The fidelity of the inserted sequences was confirmed by double-strand nucleotide sequencing using an ABI Prism Model 377 automated sequencer.
Recombinant BacMam baculoviruses were constructed from pFastBacMam shuttle plasmids by using the bacterial cell-based Bac-to-Bac system. Viruses were propagated in Sf9 (Spodoptera frugiperda) cells cultured in Hink's TNM-FH Insect media supplemented with 10% (v/v) fetal bovine serum and 0.1% (v/v) pluronic F-68 according to established protocols.
Human osteosarcoma (HOS) cells that naturally express human CXCR4 were transfected with human CCR5, human CD4 and the pHIV-LTR-luciferase plasmid using FuGENE 6 transfection reagent. Single cells were isolated and grown under selection condition in order to generate a stable HOS (hCXCR4/hCCR5/hCD4/pHIV-LTR-luciferase) clonal cell line. The cells were maintained in Dulbeccos modified Eagles media supplemented with 10% fetal calf serum (FCS), G418 (400 ug/ml), puromycin (1 ug/ml), mycophenolic acid (40 ug/ml), xanthine (250 ug/ml) and hypoxanthine (13.5 ug/ml) to maintain a selection pressure for cells expressing the LTR-luciferase, hCCR5 and hCD4, respectively. Human embryonic kidney (HEK-293) cells stably transfected to express the human macrophage scavenging receptor (Class A, type 1; GenBank Accession No. D90187), were maintained in DMEM/F-12 media (1:1) supplemented with 10% FCS and 1.5 ug/ml puromycin. The expression of this receptor by the HEK-293 cells enhances their ability to stick to tissue culture treated plasticware.
HEK-293 cells were harvested using enzyme-free cell dissociation buffer. The cells were resuspended in DMEM/F-12 media supplemented with 10% FCS and 1.5 ug/ml and counted. Tranductions were performed by direct addition of BacMam baculovirus containing insect cell media to cells. The cells were simultaneously transduced with BacMam baculovirus expressing HIV-1 tat, HIV-1 rev and HIV-1 gp160 (from the HXB2 HIV strain). Routinely an MOI of 10 of each virus was added to the media containing the cells. 2 mM butyric acid was also added to the cells at this stage to increase protein expression in transduced cells. The cells were subsequently mixed and seeded into a flask at 30 million cells per T225. The cells were incubated at 37° C., 5% CO2, 95% humidity for 24 h to allow for protein expression.
HEK and HOS cells were harvested in DMEM/F-12 media containing 2% FCS and DMEM media containing 2% FCS, respectively, with no selection agents added. Compounds were plated as 1 ul spots in 100% DMSO on a 96-well CulturPlate plates. HOS cells (50 ul) were added first to the wells, followed immediately by the HEK cells (50 ul). The final concentration of each cell type was 20,000 cells per well. Following these additions, the cells were returned to a tissue culture incubator (37° C.; 5% CO2/95% air) for an additional 24 h.
Following the 24 h incubation, total cellular luciferase activity was measured using the LucLite Plus assay kit (Packard, Meridien, Conn.). […]

[2] = Compound cytotoxicity in the absence of virus addition (CellTiter-Glo); assay type: cell-based; settings: human; non-infected HOS cultures; read-out: Cytotox (pIC50) (converted)
In short: (§1)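 HOS cells expressing hCXCR4/hCCR5/hCD4 and an HIV-LTR-luciferase reporter, in DMEM with 2% FCS, were pre-treated with compound for 1 h, then infected with HIV-1 IIIB (~2 million RLU/well) for 96 h at 37° C. Infection was read by Steady-Glo luciferase; cytotoxicity in uninfected cultures by CellTiter-Glo.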

human CXCR4 = target: T1, human CXCR4 (Homo sapiens, UniProt P61073); assay: Functional FLIPR assay (block of SDF-1 alpha induced [Ca2+]i change); assay type: cell-based; settings: HEK-293 cells with human CXCR4 BacMam and Gqi5 BacMam; antagonism of SDF-1 alpha; read-out: Functional assay (pIC50) (converted)
T1 construct: expressed in transfected cells; host or cells: HEK-293 cells (stably expressing human macrophage scavenging receptor) transduced with human CXCR4 BacMam and Gqi5 BacMam baculoviruses
T1 sequence (P61073 whole entry): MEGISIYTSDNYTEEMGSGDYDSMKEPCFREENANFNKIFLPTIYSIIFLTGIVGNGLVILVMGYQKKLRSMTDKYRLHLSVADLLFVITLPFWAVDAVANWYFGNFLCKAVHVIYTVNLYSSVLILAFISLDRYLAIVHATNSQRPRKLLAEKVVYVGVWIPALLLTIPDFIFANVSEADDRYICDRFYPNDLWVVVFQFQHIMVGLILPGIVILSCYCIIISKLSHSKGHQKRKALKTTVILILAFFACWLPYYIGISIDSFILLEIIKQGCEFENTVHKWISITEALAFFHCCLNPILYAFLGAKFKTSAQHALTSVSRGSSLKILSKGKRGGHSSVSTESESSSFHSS
Protocol: Human embryonic kidney (HEK-293) cells were maintained and harvested as described above. Cells were plated in 96-well, black clear bottom, poly-lysine coated plates at a concentration of 40,000 cells per well in a final volume of 100 ul containing human CXCR4BacMam (MOI=25) and Gqi5 BacMam (MOI=12.5). The cells were incubated at 37° C., 5% CO2, 95% humidity for 24 h to allow for protein expression.
After the required incubation time the cells were washed once with 50 ul of fresh serum-free DMEM/F12 media containing probenicid. 50 ul of dye solution was then added to the cells (Calcium Plus Assay Kit Dye; Molecular Devices) was dissolved in 200 ml of the above probenicid/BSA containing media and incubated for 1 h. Cell plates were transferred to a Fluorometric Imaging Plate Reader (FLIPR). Upon addition the effect of the compounds on the change in [Ca^2+]i was examined to determine if the compounds were agonists or antagonists (ability to block SDF-1 alpha activity) at the CXCR4 receptor. IC50 values are determined and pKb values are calculated using the Leff and Dougall equation: KB=IC50/((2+([agonist]/EC50ˆb)ˆ1/b−1) Where IC50 is that defined by the antagonist concentration-response curve [agonist] is the EC80 concentration of agonist used EC50 is that defined by the agonist concentration-response curve b is the slope of the agonist concentration-response curve.

[3] = test system: HIV-1 IIIB (T-tropic, CXCR4 utilizing); assay: HOS HIV-1 infectivity assay; assay type: cell-based
In short: as §1

[4] = Human immunodeficiency virus 1, IIIB, as determined by the infectivity assay, strain not stated in Table 2, read-out: Activity Level
[5] = Human immunodeficiency virus 1, HIV-1 IIIB, HOS cells, 96 h, luciferase readout, read-out: HOS (3B)

| Structure (SMILES) | T-tropic HIV viral load (T-tropic HIV) | IC50 [1] [nM] | IC50 at 96 h [2] [µM] | IC50 (human CXCR4) [nM] | IC50 [3, 4] [nM] | IC50 [3, 5] [nM] | IC50 ([3]; as determined by the infectivity assay, strain not stated in Table 2, read-out: Activity Level) [nM] |
| --- | --- | --- | --- | --- | --- | --- | --- |
| c1cc(CN2CCCNCCNCCCNCC2)ccc1CN1CCCNCCNCCCNCC1 [AMD-3100] | significantly reduce T-tropic HIV viral load |  |  |  |  |  |  |
| CN(Cc1nc2cc(CN)ccc2[nH]1)C1CCCc2cccnc21 (stereo not drawn) [Example 17, N-{[5-(Aminomethyl)-1H-benzimidazol-2-yl]methyl}-N-methyl-5,6,7,8-tetrahydro-8-quinolinamine] |  | 1290 | > 100 | 257 | 500 to 10000 | 1360 |  |
| CN(C)CCCNC(=O)c1cccc2[nH]c(CN(C)C3CCCc4cccnc43)nc12 (stereo not drawn) [Example 29, N-[3-(Dimethylamino)propyl]-2-{[methyl(5,6,7,8-tetrahydro-8-quinolinyl)amino]methyl}-1H-benzimidazole-4-carboxamide] |  | 257 | > 100 | 132 | < 100 | 81 |  |
| CN(Cc1nc2c(CN3CCNCC3)cccc2[nH]1)C1CCCc2cccnc21 (stereo not drawn) [Example 33, N-Methyl-N-{[4-(1-piperazinylmethyl)-1H-benzimidazol-2-yl]methyl}-5,6,7,8-tetrahydro-8-quinolinamine] |  | 162 | > 100 | 15.1 | < 100 | 13 |  |
| CN(Cc1nc2c(C(=O)NCCc3cn(C)cn3)cccc2[nH]1)C1CCCc2cccnc21 (stereo not drawn) [Example 24, N-[2-(1-Methyl-1H-imidazol-4-yl)ethyl]-2-{[methyl(5,6,7,8-tetrahydro-8-quinolinyl)amino]methyl}-1H-benzimidazole-4-carboxamide] |  | 145 | > 100 | 12.3 | < 100 | 22 |  |
| CN(Cc1nc2c(C(=O)N3CCC(N)CC3)cccc2[nH]1)C1CCCc2cccnc21 (stereo not drawn) [Example 30, N-({4-[(4-Amino-1-piperidinyl)carbonyl]-1H-benzimidazol-2-yl}methyl)-N-methyl-5,6,7,8-tetrahydro-8-quinolinamine] |  | 407 | > 100 | 2000 |  | 75 | < 100 |
| CCN(Cc1nc2cc(C(=O)NCCc3cnc[nH]3)ccc2[nH]1)C1CCCc2cccnc21 (stereo not drawn) [Example 12, 2-{[Ethyl(5,6,7,8-tetrahydro-8-quinolinyl)amino]methyl}-N-[2-(1H-imidazol-4-yl)ethyl]-1H-benzimidazole-5-carboxamide] |  | 1170 | > 100 | 447 | 100 to 500 | 179 |  |
| CCN(Cc1nc2cc(C(=O)NCCCN)ccc2[nH]1)C1CCCc2cccnc21 (stereo not drawn) [Example 13, N-(3-Aminopropyl)-2-{[ethyl(5,6,7,8-tetrahydro-8-quinolinyl)amino]methyl}-1H-benzimidazole-5-carboxamide] |  | 1740 | > 100 | 417 | 500 to 10000 | 594 |  |
